Measurements taken from patent US20220370416A1, “COMPOUNDS AND METHODS FOR TARGETED DEGRADATION OF KRAS” (Arvinas Operations, Inc., priority 2020, published 2022).

Key:
HiBit-KRAS^G12C [1] = target: T1, HiBit-KRAS^G12C (Homo sapiens, UniProt P01116, G12C); assay: HiBit degradation assay in MiaPaCa-2 HiBit-KRas^G12C cells; format: cell-based; details: 24 hours; for DC50: read-out: KRas^G12C-HiBiT (MiaPaCa; 0.5% DMSO) IC50; for Dmax: MIA PaCa-2, MiaPaCa-2 HiBit-KRas^G12C cells
Procedure, shortened: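 DC50 and Dmax come from 4-parameter fits of DMSO-normalized HiBit luminescence after 24 hours' exposure at 37° C to 10 μM–20 nM compound in 0.1% or 0.5% DMSO. Cells: MiaPaCa-2 carrying one endogenously HiBit-tagged KRAS^G12C allele; concentrations causing ≥50% […] viability loss (alamar blue) excluded.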

HiBit-KRAS^G12C [2] = target: T1, HiBit-KRAS^G12C; assay: HiBit degradation assay in SW1573 HiBit-KRas^G12C cells; format: cell-based; design: expressed in transfected cells; host or cells: SW1573 (clone E6), modified pcDNA3.1 vector, TK promoter; details: 24 hours; for Dmax: SW1573, SW1573 HiBit-KRas^G12C
Procedure, shortened: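 HiBit-KRAS G12C degradation was measured after a 24 h compound exposure (titrated 10 μM–20 nM) in engineered SW1573 cells. Lytic HiBit luminescence, expressed relative to DMSO controls, yielded DC50 and Dmax from 4-parameter fits. Concentrations causing ≥50% loss in alamar blue viability were omitted as cytotoxic.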

[3] = MiaPaCa-2 HiBit-KRas^G12C cells, 0.5% DMSO
[4] = read-out: KRas^G12C-HiBiT (SW1573; 0.5% DMSO) IC50***, SW1573 HiBit-KRas^G12C, 0.5% DMSO
[5] = 0.1% DMSO, maximum degradation, read-out: KRas^G12C-HiBiT (MiaPaCa; 0.1% DMSO) DMax
[6] = 0.1% DMSO, read-out: KRas^G12C-HiBit (SW1573; 0.1% DMSO) Dmax**
[7] = 0.5% DMSO, read-out: KRas^G12C-HiBiT (SW1573; 0.5% DMSO) Dmax**
[8] = SW1573 HiBit-KRas^G12C, 0.1% DMSO, read-out: KRas^G12C-HIBit (SW1573; 0.1% DMSO) DC50*
[9] = 0.5% DMSO, maximum degradation, read-out: KRas^G12C-HiBiT (MiaPaCa; 0.5% DMSO) DMax

T1 sequence (P01116 1-186 isoform P01116-2 G12C limits assumed): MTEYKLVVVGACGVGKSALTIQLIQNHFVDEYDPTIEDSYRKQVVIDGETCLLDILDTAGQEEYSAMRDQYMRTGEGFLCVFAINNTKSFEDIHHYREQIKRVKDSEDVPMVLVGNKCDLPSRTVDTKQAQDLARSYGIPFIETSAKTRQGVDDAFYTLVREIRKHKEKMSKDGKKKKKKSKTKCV

SMILES | DC50 (HiBit-KRAS^G12C [1]; [3]) | DC50 (HiBit-KRAS^G12C [2]; [4]) | Dmax (HiBit-KRAS^G12C [1]; [5]) | Dmax (HiBit-KRAS^G12C [2]; [6]) | Dmax (HiBit-KRAS^G12C [2]; [7]) | DC50 (HiBit-KRAS^G12C [2]; [8]) | Dmax (HiBit-KRAS^G12C [1]; [9]) | KRas^G12C-HiBiT (MiaPaCa; 0.5% DMSO) DMax (HiBit-KRAS^G12C [1]; MiaPaCa-2 HiBit-KRas^G12C cells, 0.5% DMSO, maximum degradation) | KRas^G12C-HiBiT (SW1573; 0.5% DMSO) Dmax** (HiBit-KRAS^G12C [2]; SW1573 HiBit-KRas^G12C, 0.5% DMSO)
C=C(F)C(=O)N1CCN(c2nc(OCCN3CCC(COc4cc([C@@H](C(=O)N5C[C@H](O)C[C@H]5C(=O)N[C@@H](C)c5ccc(-c6ccnn6C)cc5)C(C)C)on4)CC3)nc3c(F)c(-c4cc(O)cc5ccccc45)c(Cl)cc23)C[C@@H]1CC#N [Compound 158, (2S,4R)-1-[(2S)-2-[3-({1-[2-({6-chloro-4-[(3S)-3-(cyanomethyl)-4-(2-fluoroprop-2-enoyl)piperazin-1-yl]-8-fluoro-7-(3-hydroxynaphthalen-1-yl)quinazolin-2-yl}oxy)ethyl]piperidin-4-yl}methoxy)-1,2-oxazol-5-yl]-3-methylbutanoyl]-4-hydroxy-N-[(1S)-1-[4-(1-methyl-1H-pyrazol-5-yl)phenyl]ethyl]pyrrolidine-2-carboxamide] | > 1000 nM | > 1000 nM |  |  |  |  |  |  | 
C=CC(=O)N1CCN(c2nc(O[C@H](C)CN3CCC(OCCOCC(=O)N[C@H](C(=O)N4C[C@H](O)C[C@H]4C(=O)N[C@@H](C)c4ccc(-c5scnc5C)cc4)C(C)(C)C)CC3)nc3c(F)c(-c4cc(O)cc5ccccc45)c(Cl)cc23)[C@@H](C)C1 [Compound 39, (2S,4R)-1-[(2S)-2-{2-[2-({1-[(2R)-2-{[6-chloro-8-fluoro-7-(3-hydroxynaphthalen-1-yl)-4-[(2S)-2-methyl-4-(prop-2-enoyl)piperazin-1-yl]quinazolin-2-yl]oxy}propyl]piperidin-4-yl}oxy)ethoxy]acetamido}-3,3-dimethylbutanoyl]-4-hydroxy-N-[(1S)-1-[4-(4-methyl-1,3-thiazol-5-yl)phenyl]ethyl]pyrrolidine-2-carboxamide] | > 1000 nM |  | < 35% | 35 to 70% | 35 to 70% | 100 to 1000 nM |  |  | 
C=CC(=O)N1CCN(c2nc(O[C@H](C)CN3CCC(OCC(=O)N[C@H](C(=O)N4C[C@H](O)C[C@H]4C(=O)N[C@@H](C)c4ccc(-c5scnc5C)cc4)C(C)(C)C)CC3)nc3c(F)c(-c4cc(O)cc5ccccc45)c(Cl)cc23)CC1 [Compound 43, (2S,4R)-1-[(2S)-2-[2-({1-[(2R)-2-{[6-chloro-8-fluoro-7-(3-hydroxynaphthalen-1-yl)-4-[4-(prop-2-enoyl)piperazin-1-yl]quinazolin-2-yl]oxy}propyl]piperidin-4-yl}oxy)acetamido]-3,3-dimethylbutanoyl]-4-hydroxy-N-[(1S)-1-[4-(4-methyl-1,3-thiazol-5-yl)phenyl]ethyl]pyrrolidine-2-carboxamide] |  |  | 35 to 70% | 35 to 70% | > 70% | 100 to 1000 nM | 35 to 70% |  | 
C=C(F)C(=O)N1CCN(c2nc(OCCN3CCC4(CC3)CN(c3cc([C@H](C(=O)N5C[C@H](O)C[C@H]5C(=O)N[C@@H](C)c5ccc(-c6scnc6C)cc5)C(C)C)on3)C4)nc3c(F)c(-c4cc(O)cc5ccccc45)c(Cl)cc23)C[C@@H]1CC#N (atropisomer, axis not shown) [Compound 109, (2S,4R)-1-[(2R)-2-(3-{7-[2-({6-chloro-4-[(3S)-3-(cyanomethyl)-4-(2-fluoroprop-2-enoyl)piperazin-1-yl]-8-fluoro-7-(3-hydroxynaphthalen-1-yl)quinazolin-2-yl}oxy)ethyl]-2,7-diazaspiro[3.5]nonan-2-yl}-1,2-oxazol-5-yl)-3-methylbutanoyl]-4-hydroxy-N-[(1S)-1-[4-(4-methyl-1,3-thiazol-5-yl)phenyl]ethyl]pyrrolidine-2-carboxamide] | < 100 nM | < 100 nM |  |  | 35 to 70% |  | > 70% |  | 
C=C(F)C(=O)N1CCN(c2nc(OCCN3CCC(OCCOc4cc([C@H](C(=O)N5C[C@H](O)C[C@H]5C(=O)N[C@@H](C)c5ccc(-c6scnc6C)cc5)C(C)C)on4)CC3)nc3c(F)c(-c4cc(O)cc5ccccc45)c(Cl)cc23)C[C@@H]1CC#N [Compound 16, (2S,4R)-1-[(2R)-2-{3-[2-({1-[2-({6-chloro-4-[(3S)-3-(cyanomethyl)-4-(2-fluoroprop-2-enoyl)piperazin-1-yl]-8-fluoro-7-(3-hydroxynaphthalen-1-yl)quinazolin-2-yl}oxy)ethyl]piperidin-4-yl}oxy)ethoxy]-1,2-oxazol-5-yl}-3-methylbutanoyl]-4-hydroxy-N-[(1S)-1-[4-(4-methyl-1,3-thiazol-5-yl)phenyl]ethyl]pyrrolidine-2-carboxamide] |  |  | 35 to 70% | > 70% | > 70% | 100 to 1000 nM | > 70% |  | 
C=C(F)C(=O)N1CCN(c2nc(OCCN3CCC(C)(COc4cc([C@H](C(=O)N5C[C@H](O)C[C@H]5C(=O)N[C@@H](C)c5ccc(-c6ccnn6C)cc5)C(C)C)on4)CC3)nc3c(F)c(-c4cc(O)cc5ccccc45)c(Cl)cc23)C[C@@H]1CC#N (atropisomer, axis not shown) [Compound 124, (2S,4R)-1-[(2R)-2-[3-({1-[2-({6-chloro-4-[(3S)-3-(cyanomethyl)-4-(2-fluoroprop-2-enoyl)piperazin-1-yl]-8-fluoro-7-(3-hydroxynaphthalen-1-yl)quinazolin-2-yl}oxy)ethyl]-4-methylpiperidin-4-yl}methoxy)-1,2-oxazol-5-yl]-3-methylbutanoyl]-4-hydroxy-N-[(1S)-1-[4-(1-methyl-1H-pyrazol-5-yl)phenyl]ethyl]pyrrolidine-2-carboxamide] | < 100 nM | < 100 nM |  |  | 35 to 70% |  | 35 to 70% |  | 
Cc1ncsc1-c1ccc([C@H](C)NC(=O)[C@@H]2C[C@@H](O)CN2C(=O)[C@@H](NC(=O)COCC2CCN(CCOc3nc(N4CCN(C(=O)/C=C/CN5CCOCC5)[C@@H](CC#N)C4)c4cc(Cl)c(-c5cc(O)cc6ccccc56)c(F)c4n3)CC2)C(C)(C)C)cc1 [Compound 164, (2S,4R)-1-[(2S)-2-[2-({1-[2-({6-chloro-4-[(3S)-3-(cyanomethyl)-4-[(2E)-4-(morpholin-4-yl)but-2-enoyl]piperazin-1-yl]-8-fluoro-7-(3-hydroxynaphthalen-1-yl)quinazolin-2-yl}oxy)ethyl]piperidin-4-yl}methoxy)acetamido]-3,3-dimethylbutanoyl]-4-hydroxy-N-[(1S)-1-[4-(4-methyl-1,3-thiazol-5-yl)phenyl]ethyl]pyrrolidine-2-carboxamide] | > 1000 nM | 100 to 1000 nM |  |  | 35 to 70% |  | 35 to 70% |  | 
C=CC(=O)N1CCN(c2nc(OCCN3CCC(COc4cc([C@H](C(=O)N5C[C@H](O)C[C@H]5C(=O)N[C@@H](C)c5ccc(-c6scnc6C)cc5)C(C)C)on4)CC3)nc3c(F)c(-c4cc(O)cc5ccccc45)c(Cl)cc23)C[C@@H]1CC#N (atropisomer, axis not shown) [Compound 173, (2S,4R)-1-[(2R)-2-[3-({1-[2-({6-chloro-4-[(3S)-3-(cyanomethyl)-4-(prop-2-enoyl)piperazin-1-yl]-8-fluoro-7-(3-hydroxynaphthalen-1-yl)quinazolin-2-yl}oxy)ethyl]piperidin-4-yl}methoxy)-1,2-oxazol-5-yl]-3-methylbutanoyl]-4-hydroxy-N-[(1S)-1-[4-(4-methyl-1,3-thiazol-5-yl)phenyl]ethyl]pyrrolidine-2-carboxamide] | < 100 nM | < 100 nM |  |  |  |  |  | A (A ≥ 70) | A (A ≥ 70)
